Laboratory results: EP0450573A2, “Antibodies for the treatment and diagnosis of Pseudomonas aeruginosa infections” (priority 1990, dated 1991)

System: P. aeruginosa strain FI-6(A366)
Test: Opsonophagocytic assay (bactericidal activity with complement and polymorphonuclear cells)
Type: cell-based
Conditions: cefepime alone, 0 µg/ml 6D7 data point of Figure 1
Method: Overnight cultures of P. aeruginosa FI-6 in adjusted Miller-Hinton broth containing 50 mg/l calcium chloride and 25 mg/l magnesium chloride were innoculated into media lacking or containing 1 µg/ml amikacin; this concentration of antibiotic allows almost normal growth of the bacterial culture. The bacterial cultures were incubated until mid-logarithmic phase of growth was attained, and then the bacteria were harvested by centrifugation, and resuspended to 5 x 10⁴ cells/ml in gelatin veronal buffer. […] Opsonic activity of antibodies directed against amikacin-treated bacteria was determined in the presence of 1 µg/ml amikacin. […] The amount of bacterial killing, was determined by plating 25 µl from each tube onto solid agar, growing the plated bacteria overnight, and counting the number of colonies on the plate. […]
The opsonophagocytic activity of varying amounts of monoclonal antibody 6D7 towards P. aeruginosa strain FI-6 cells was determined in the presence or absence of subinhibitory concentrations of the antibiotic, cefepime. […]

CO/N=C(\C(=O)N[C@@H]1C(=O)N2C(C(=O)[O-])=C(C[N+]3(C)CCCC3)CS[C@H]12)c1csc(N)n1 [cefepime]
survival: 100%
